Assay [1] deals with T1, TBK1 (Homo sapiens, UniProt Q9UHD2).
T1 construct: TBK1 and IKKε were expressed and purified as full length recombinant proteins; made in house
T1 sequence (Q9UHD2 1-729): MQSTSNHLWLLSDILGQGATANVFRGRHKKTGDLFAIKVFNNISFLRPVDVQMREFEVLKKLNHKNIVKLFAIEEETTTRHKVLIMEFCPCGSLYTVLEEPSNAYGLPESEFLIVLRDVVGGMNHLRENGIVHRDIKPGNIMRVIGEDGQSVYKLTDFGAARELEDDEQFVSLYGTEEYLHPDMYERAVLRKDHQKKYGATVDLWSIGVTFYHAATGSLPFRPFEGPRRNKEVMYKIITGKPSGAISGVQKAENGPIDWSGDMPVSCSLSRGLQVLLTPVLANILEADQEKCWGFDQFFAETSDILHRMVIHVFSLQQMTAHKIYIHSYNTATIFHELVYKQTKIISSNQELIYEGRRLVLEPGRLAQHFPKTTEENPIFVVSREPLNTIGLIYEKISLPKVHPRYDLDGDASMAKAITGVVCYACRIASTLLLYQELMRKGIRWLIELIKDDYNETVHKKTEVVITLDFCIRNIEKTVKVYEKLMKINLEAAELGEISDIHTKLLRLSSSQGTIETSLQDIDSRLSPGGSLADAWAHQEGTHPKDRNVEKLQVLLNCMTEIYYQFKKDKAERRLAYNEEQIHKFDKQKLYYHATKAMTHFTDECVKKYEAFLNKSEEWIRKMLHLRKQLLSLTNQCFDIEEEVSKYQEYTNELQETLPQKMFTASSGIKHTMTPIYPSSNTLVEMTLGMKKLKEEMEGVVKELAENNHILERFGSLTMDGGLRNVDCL
Kind of assay: TR-FRET enzymatic activity assay, TBK1. Note: full length recombinant TBK1 at 2.5 nM. Type of assay: biochemical. The method, then:
(§1) Biological Assay for TBK1 and IKKε:
Enzymatic activity of IKKε and TBK1 was measured using a homogeneous time resolved fluorescence resonance energy transfer (TR-FRET) assay that monitors enzyme dependent phosphorylation of a biotinylated serine/threonine peptide substrate. An increase in the amount of phosphorylated peptide results in an increase in TR-FRET signal. TBK1 and IKKε were expressed and purified as full length recombinant proteins. Detection reagents for the assay were purchased from Cisbio. […] After an assay reaction time of 240 minutes at 25° C., reactions were terminated with EDTA.
Amount of phosphorylated peptide was determined by the addition of 125 nM streptavidin XL665 and europium cryptate labeled anti-phospho monoclonal antibody and the resulting TR-FRET signal was recorded on an Envision plate reader (Ex: 340 nm; Em: 615/665 nm; 100 μs delay and 200 μs read window). Data was normalized based on a positive (1 μM Staurosporine) and negative (DMSO) controls and IC50 values calculated from the fit of the dose-response curves to a four-parameter equation. All IC50 values represent geometric mean values of a minimum of four determinations. These assays generally produced results within 3-fold of the reported mean.
(In general: TR-FRET usually uses a lanthanide donor and a delayed reading to cut background.)

Assay [2] deals with T2, IKKε (Homo sapiens, UniProt Q14164).
T2 construct: TBK1 and IKKε were expressed and purified as full length recombinant proteins; made in house
T2 sequence (Q14164 1-716): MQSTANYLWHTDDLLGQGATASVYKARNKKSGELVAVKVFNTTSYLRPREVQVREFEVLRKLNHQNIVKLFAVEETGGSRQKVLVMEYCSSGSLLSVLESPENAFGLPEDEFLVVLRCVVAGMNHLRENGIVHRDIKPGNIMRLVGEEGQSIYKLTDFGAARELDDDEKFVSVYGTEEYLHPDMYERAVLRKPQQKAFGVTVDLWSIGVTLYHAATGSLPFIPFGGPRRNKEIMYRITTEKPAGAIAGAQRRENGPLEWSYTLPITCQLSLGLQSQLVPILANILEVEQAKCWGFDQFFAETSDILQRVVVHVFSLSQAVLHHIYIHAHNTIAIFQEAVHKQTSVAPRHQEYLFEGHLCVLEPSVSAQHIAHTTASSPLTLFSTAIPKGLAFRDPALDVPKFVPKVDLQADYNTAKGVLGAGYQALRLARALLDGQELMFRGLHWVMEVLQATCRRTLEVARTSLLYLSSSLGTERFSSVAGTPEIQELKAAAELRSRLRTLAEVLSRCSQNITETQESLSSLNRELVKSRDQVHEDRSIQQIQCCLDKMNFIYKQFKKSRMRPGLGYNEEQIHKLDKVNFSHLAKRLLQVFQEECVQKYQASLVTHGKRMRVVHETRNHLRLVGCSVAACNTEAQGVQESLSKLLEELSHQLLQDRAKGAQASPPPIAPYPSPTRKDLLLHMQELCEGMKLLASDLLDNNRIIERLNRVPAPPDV
As to the kind of experiment: TR-FRET enzymatic activity assay, IKKε. Note: full length recombinant IKKε at 0.3 nM. Type of assay: biochemical. Conditions: read-out: IKKϵ IC50. The method, then:
as §1
Enzymatic activity of IKKε and TBK1 was measured using a homogeneous time resolved fluorescence resonance energy transfer (TR-FRET) assay that monitors enzyme dependent phosphorylation of a biotinylated serine/threonine peptide substrate. […] TBK1 and IKKε were expressed and purified as full length recombinant proteins. Detection reagents for the assay were purchased from Cisbio. […] After an assay reaction time of 240 minutes at 25° C., reactions were terminated with EDTA.
Amount of phosphorylated peptide was determined by the addition of 125 nM streptavidin XL665 and europium cryptate labeled anti-phospho monoclonal antibody and the resulting TR-FRET signal was recorded on an Envision plate reader (Ex: 340 nm; Em: 615/665 nm; 100 μs delay and 200 μs read window). Data was normalized based on a positive (1 μM Staurosporine) and negative (DMSO) controls and IC50 values calculated from the fit of the dose-response curves to a four-parameter equation. All IC50 values represent geometric mean values of a minimum of four determinations.

The values that follow come from patent US10316049B2, “Tank-binding kinase inhibitor compounds” (Gilead Sciences, Inc., priority 2015, dated 2019).

pIC50: −log10 of the molar value. A value given as a limit tells only on which side of the number the result lay.

`N#Cc1cc(-c2ccnc(NC(=O)[C@@H]3C[C@H]3c3ccccc3)c2)ccc1OC1CCOCC1` [Example 87, (1R,2R)—N-(4-(3-cyano-4-((tetrahydro-2H-pyran-4-yl)oxy)phenyl)pyridin-2-yl)-2-phenylcyclopropane-1-carboxamide]: the figures for the pIC50 in assay [1] and in assay [2] were 6.37 and 6.11, respectively.
The matching figures for `Cc1ncc(C(=O)N2CC[C@H](Oc3ccc(-c4cc(NC(=O)C5CC5)ncn4)cc3C#N)[C@H](F)C2)o1` [Example 107, N-(6-(3-cyano-4-(((3R,4S)-3-fluoro-1-(2-methyloxazole-5-carbonyl)piperidin-4-yl)oxy)phenyl)pyrimidin-4-yl)cyclopropanecarboxamide]: 7.31 and 6.80.
The matching figures for `Cn1cc([C@@H]2C[C@H]2C(=O)Nc2cc(-c3ccc(O[C@H]4CCN(C(=O)[C@@H](O)CO)C[C@H]4F)c(C#N)c3)ncn2)cn1` [Example 146, (1,2-Trans)-N-(6-(3-cyano-4-(((3R,4S)-1-((S)-2,3-dihydroxypropanoyl)-3-fluoropiperidin-4-yl)oxy)phenyl)pyrimidin-4-yl)-2-(1-methyl-1H-pyrazol-4-yl)cyclopropane-1-carboxamide]: 7.79 and 7.51.
The matching figures for `Cn1cc([C@@H]2C[C@H]2C(=O)Nc2cc(-c3ccc(O[C@H]4CCN(C(=O)CO)C[C@H]4F)c(C#N)c3)ccn2)cn1` [Example 90, (1,2-trans)-N-(4-(3-cyano-4-(((3R,4S)-3-fluoro-1-(2-hydroxyacetyl)piperidin-4-yl)oxy)phenyl)pyridin-2-yl)-2-(1-methyl-1H-pyrazol-4-yl)cyclopropane-1-carboxamide]: 8.25 and 8.02.
With `Cn1cc([C@@H]2C[C@H]2C(=O)Nc2cc(-c3ccc(O[C@H]4CCN(C(=O)[C@@H](O)CO)C[C@H]4F)c(C#N)c3)ccn2)cn1` [Example 130, (1,2-Trans)-N-(4-(3-cyano-4-(((3R,4S)-1-((S)-2,3-dihydroxypropanoyl)-3-fluoropiperidin-4-yl)oxy)phenyl)pyridin-2-yl)-2-(1-methyl-1H-pyrazol-4-yl)cyclopropane-1-carboxamide], the pIC50 – broadly, the IC50 on a negative log10 scale, so that one unit is a factor of ten – in assay [1] was 8.21; in assay [2], 7.81.
On the same counts, the results for `Cn1cc(C2C[C@H]2C(=O)Nc2cc(-c3ccc(O[C@H]4CCN(C(=O)CO)CC4(F)F)c(C#N)c3)ccn2)cn1` (stereo in doubt) [Example 89, (1,2-trans)-N-(4-(3-cyano-4-(((S)-3,3-difluoro-1-(2-hydroxyacetyl)piperidin-4-yl)oxy)phenyl)pyridin-2-yl)-2-(1-methyl-1H-pyrazol-4-yl)cyclopropane-1-carboxamide] are 8.35 and 8.62.
In turn, `Cn1cc([C@@H]2C[C@H]2C(=O)Nc2cc(-c3ccc(O[C@H]4CCN(C(=O)CO)CC4(F)F)c(C#N)c3)ncn2)cn1` [Example 137, (1R,2R)—N-(6-(3-cyano-4-(((S)-3,3-difluoro-1-(2-hydroxyacetyl)piperidin-4-yl)oxy)phenyl)pyrimidin-4-yl)-2-(1-methyl-1H-pyrazol-4-yl)cyclopropane-1-carboxamide] showed a pIC50 in assay [1] of 7.67.
As for `N#Cc1cc(-c2ccnc(NC(=O)C3CC3)c2)ccc1O[C@H]1CCN(C(=O)CO)CC1(F)F` [Example 10, (S)—N-(4-(3-cyano-4-((3,3-difluoro-1-(2-hydroxyacetyl)piperidin-4-yl)oxy)phenyl)pyridin-2-yl)cyclopropanecarboxamide], the values for the pIC50 in assay [1] and in assay [2] were 8.38 and 8.13, respectively.
The matching figures for `Cn1cc([C@H]2C[C@@H]2C(=O)Nc2cc(-c3ccc(O[C@H]4CCN(C(=O)CO)CC4(F)F)c(C#N)c3)ccn2)cn1` [Example 122, (1S, 2S)—N-(4-(3-cyano-4-(((S)-3,3-difluoro-1-(2-hydroxyacetyl)piperidin-4-yl)oxy)phenyl)pyridin-2-yl)-2-(1-methyl-1H-pyrazol-4-yl)cyclopropane-1-carboxamide]: 8.22 and 8.31.
The matching figures for `N#Cc1cc(-c2ccnc(NC(=O)[C@@H]3C[C@H]3c3cccnc3)c2)ccc1O[C@H]1CCN(C(=O)CO)C[C@H]1F` (relative stereo) [Example 127]: 7.91 and 7.48.
On the same counts, the results for `N#Cc1cc(-c2ccnc(NC(=O)[C@@H]3C[C@H]3c3cccnc3)c2)ccc1O[C@H]1CCN(C(=O)[C@@H](O)CO)CC1(F)F` [Example 139, (1R,2R)—N-(4-(3-cyano-4-(((S)-1-((S)-2,3-dihydroxypropanoyl)-3,3-difluoropiperidin-4-yl)oxy)phenyl)pyridin-2-yl)-2-(pyridin-3-yl)cyclopropane-1-carboxamide] are 7.80 and 7.79.
`N#Cc1cc(-c2ccnc(NC(=O)[C@@H]3C[C@H]3c3ccno3)c2)ccc1OC1CCOCC1` (relative stereo) [Example 102, trans-1,2-N-(4-(3-cyano-4-((tetrahydro-2H-pyran-4-yl)oxy)phenyl)pyridin-2-yl)-2-(isoxazol-5-yl)cyclopropane-1-carboxamide]: the figures for the pIC50 in assay [1] and in assay [2] were 7.48 and 6.71, respectively.
The matching figures for `N#Cc1cc(-c2ccnc(NC(=O)C3(CF)CC3)c2)ccc1OC1CCOCC1` [Example 49, N-(4-(3-cyano-4-((tetrahydro-2H-pyran-4-yl)oxy)phenyl)pyridin-2-yl)-1-(fluoromethyl)cyclopropane-1-carboxamide]: less than 6.00 and less than 6.00.
For `Cn1cc([C@H]2C[C@@H]2C(=O)Nc2cc(-c3ccc(O[C@H]4CCN(C(=O)CO)CC4(F)F)c(C#N)c3)ncn2)cn1` [Example 138, (1S,2S)—N-(6-(3-cyano-4-(((S)-3,3-difluoro-1-(2-hydroxyacetyl)piperidin-4-yl)oxy)phenyl)pyrimidin-4-yl)-2-(1-methyl-1H-pyrazol-4-yl)cyclopropane-1-carboxamide], the pIC50 in assay [1] was 8.23.
Still for that read-out and setting: to `Cn1cc([C@@H]2C[C@H]2C(=O)Nc2cc(-c3ccc(O[C@H]4CCN(C(=O)CO)CC4(F)F)c(C#N)c3)ncn2)cn1` [Example 128, (1,2-Trans)-N-(6-(3-cyano-4-(((S)-3,3-difluoro-1-(2-hydroxyacetyl)piperidin-4-yl)oxy)phenyl)pyrimidin-4-yl)-2-(1-methyl-1H-pyrazol-4-yl)cyclopropane-1-carboxamide] belongs 8.14.
